Results published in patent publication US20030049600A1, “STEALTH VIRUS DETECTION IN THE CHRONIC FATIGUE SYNDROME” (priority 1991, published 2003).

System: fibroblasts
Assay: Toxic effect on cultured fibroblasts, mimic of stealth virus culture toxicity
Format: cell-based
Details: 5 nM
Text: A lack of regular refeeding of the cultures can result in a tendency for the CPE to abort and not to progress. This effect is not seen with CMV infected cultures. In unfed stealth virus cultures and even with regular refeeding, one can observe a toxic effect on many of the remaining cells. Culture cells appear to lose a degree of vitality and become duller in appearance compared to control cultures. The fibroblasts can assume somewhat of a pavement appearance, instead of the elongated shape.

C=C1[C@@H](O)[C@@H]2O[C@]3(CC[C@H](/C=C/[C@@H](C)[C@@H]4CC(C)=C[C@@]5(O[C@H](C[C@@](C)(O)C(=O)O)CC[C@H]5O)O4)O3)CC[C@H]2O[C@@H]1[C@@H](O)C[C@H](C)[C@H]1O[C@@]2(CCCCO2)CC[C@H]1C [okadaic acid]
toxic effect on culture cells (loss of vitality, duller, pavement appearance): Some of these changes can be mimicked
